Data taken from patent US9034960B2, “Antidrift composition” (Momentive Performance Materials Inc., priority 2012, dated 2015).

Legend:
[1] = system: velvetleaf; experiment: Herbicidal performance of glyphosate spray compositions sprayed on velvetleaf; assay type: in vivo; settings: 1% glyphosate IPA salt
Protocol: Urea inclusion complexes containing PAM-PAA copolymer, sodium salt (PAM-PAA-Na) (Zetag 4100, BASF), both without and with Silicone A superspreader, were made from molten urea as was a comparison urea inclusion complex containing PAM and Silicone A. Aqueous herbicidal spray compositions were prepared containing 0.75% of these urea inclusion complexes and 1% glyphosate isopropylamine salt (“[…]”) herbicide and evaluated for reduction of drift, increased spreading and herbicidal performance when sprayed on velvetleaf.
A solution of 0.042% Silicone A and 1% glyphosate IPA salt (Example 26) was used as a control as was a plain 1% glyphosate IPA salt solution (Example 27).

[2] = Spreading/wetting: diameter of a 10 microliter drop on polystyrene dish; assay type: physicochemical; settings: Table 3; aqueous herbicidal spray composition
Protocol: The spreading ability of the various superspreaders utilized herein was determined by depositing a single drop (10 microliters) of solution onto a clean, flat polystyrene dish. The polystyrene surfaces were cleaned by rinsing with isopropanol and then with deionized water. The dishes were then dried with dry nitrogen gas. The diameters of the resulting drops were then measured. Each solution was tested 2 to 4 times and the average diameter was calculated.

## CC(C)N.O=C(O)CNCP(=O)(O)O [Example 27, glyphosate isopropylamine salt]
[1]; after 1 week
  % Control after 1 week: 25%
[1]; after 2 weeks
  % Control after 2 weeks: 81%
[2]
  Drop Spread Diameter: 4.8 mm
